The text below walks through data of patent US20220009894A1, “1,2,3,4-TETRAHYDROQUINOXALINE DERIVATIVE, PREPARATION METHOD THEREFOR AND APPLICATION THEREOF” (Abbisko Therapeutics Co., Ltd., priority 2019, published 2022).

Each structure is given as a SMILES string.

One test deals with T1, RORγt (Homo sapiens, UniProt P51449).
T1 construct: The plasmid of pFN26A-RORγt-LBD and pG14.35 (Promega, Cat. No. E1370) were co-transfected into HEK 293 cells; expressed in transfected cells; host or cells: HEK 293 cells (Cat. No. GNHu18)
T1 sequence (P51449 269-508 limits assumed): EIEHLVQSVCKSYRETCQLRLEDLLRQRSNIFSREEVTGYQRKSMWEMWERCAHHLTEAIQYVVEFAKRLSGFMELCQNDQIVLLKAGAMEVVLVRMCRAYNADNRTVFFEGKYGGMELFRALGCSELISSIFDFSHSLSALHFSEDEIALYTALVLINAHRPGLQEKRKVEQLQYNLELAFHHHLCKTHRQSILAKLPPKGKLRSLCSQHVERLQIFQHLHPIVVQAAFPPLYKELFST
In words: RORγt cellular reporter gene detection assay.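 On Cellular Reporter Assay Amax: Ursolic Acid added as 5 µL of 20 µM medium per well.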 The class given is cell-based. Conditions: 24 hrs; for EC50: HEK 293 cells co-transfected with pFN26A-RORγt-LBD and pG14.35, in presence of antagonist Ursolic acid, top concentration 50 μM; for Cellular Reporter Assay Amax: upper activation limit, HEK 293 cells, in presence of antagonist Ursolic acid. The essentials:
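HEK293 cells co-transfected with RORγt-LBD and luciferase reporter plasmids, treated with Ursolic acid antagonist plus compound in 4-fold dilutions from 50 μM for 24 h at 37° C. Firefly and Renilla luminescence read; EC50 and Amax from four-parameter fit.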

A further test deals with T2, RORγt-LBD (Homo sapiens, UniProt P51449).
T2 sequence (P51449 269-508 limits assumed): T1 sequence (P51449 269-508 limits assumed)
Nature of the test: Time-resolved fluorescence resonance energy-transfer assay (TR-FRET), co-activator peptide recruitment. Also noted: TR-FRET Biochemical Amax: unit not given here. To be noted: for EC50: His-RORγt-LBD 30 nM, SRC peptide 500 nM, agonistic activity, averages of one or more measurements, read-out: TR-FRET Biochemical EC50/; for TR-FRET Biochemical Amax: upper activation limit, His-RORγt-LBD, SRC peptide. The format is biochemical. The essentials: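 Eu-anti-His-labelled His-RORγt-LBD (30 nM final) recruits biotin-SRC co-activator peptide (500 nM final), detected via APC-streptavidin (5 nM) and Eu-anti-His (0.25 nM). Buffer was Tris/KCl/EDTA at pH 7.0 with 0.01% Triton X-100 and 1 mM DTT. Compounds were tested at 7 points in 5-fold dilutions. Plates were incubated overnight at 4 °C then 1 h at RT, and agonism was read as the 665/615 nm ratio.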

Take `C/C(=C\c1ccc2c(c1)N(S(=O)(=O)c1cccc(C(F)(F)F)c1)C[C@@H]1CN(CC(C)(C)O)CCN21)c1c(F)cccc1Cl` [Example 82, (S,E)-1-(8-(2-(2-chloro-6-fluorophenyl)prop-1-en-1-yl)-6-((3-(trifluoromethyl)phenyl)sulfonyl)-1,2,4,4a,5,6-hexahydro-3H-pyrazino[1,2-a]quinoxalin-3-yl)-2-methylpropan-2-ol]: at RORγt, the EC50 was found to be 394 nM and the “Cellular Reporter Assay Amax” value stood at 4.5. Moreover, on RORγt-LBD, the EC50 came out at 28.1 nM and the “TR-FRET Biochemical Amax” value is reported as 1.09.

For the compound `O=C(O)CN1CCN2c3ccc(/C=C/c4c(Cl)cccc4C(F)(F)F)cc3N(S(=O)(=O)c3cccc(C(F)(F)F)c3)C[C@H]2C1` [Example 83, (R,E)-2-(8-(2-chloro-6-(trifluoromethyl)styryl)-6-((3-(trifluoromethyl)phenyl)sulfonyl)-1,2,4,4a,5,6-hexahydro-3H-pyrazino[1,2-a]quinoxalin-3-yl)acetic acid], on RORγt, the EC50 turned out to be 979 nM and the “Cellular Reporter Assay Amax” value is on record as 7.0. In addition, at RORγt-LBD, the EC50 came out at 28.9 nM and the “TR-FRET Biochemical Amax” value was determined as 0.98.

`CC(=O)N1CCN2c3ccc(/C=C/c4c(Cl)cccc4C(F)(F)F)cc3N(S(=O)(=O)c3cccc(OC(F)(F)F)c3)C[C@@H]2C1` [Example 84, (S,E)-1-(8-(2-chloro-6-(trifluoromethyl)styryl)-6-((3-(trifluoromethoxy)phenyl)sulfonyl)-1,2,4,4a,5,6-hexahydro-3H-pyrazino[1,2-a]quinoxalin-3-yl)ethan-1-one]: on RORγt, the EC50 came out at 1140 nM and the “Cellular Reporter Assay Amax” value was determined as 4.7. At RORγt-LBD, the EC50 was 207 nM and the “TR-FRET Biochemical Amax” value is 0.76.

Take `COC(=O)CN1CCN2c3ccc(/C=C/c4c(Cl)cccc4C(F)(F)F)cc3N(S(=O)(=O)c3cccc(OC(F)(F)F)c3)C[C@@H]2C1` [Example 85, methyl (S,E)-2-(8-(2-chloro-6-(trifluoromethyl)styryl)-6-((3-(trifluoromethoxy)phenyl)sulfonyl)-1,2,4,4a,5,6-hexahydro-3H-pyrazino[1,2-a]quinoxalin-3-yl) acetate]: on RORγt, the EC50 is 279 nM and the “Cellular Reporter Assay Amax” value worked out at 1.8. Moreover, at RORγt-LBD, the EC50 is 75.4 nM and the “TR-FRET Biochemical Amax” value is listed as 1.01.

Consider `O=C(O)CN1CCN2c3ccc(/C=C/c4c(Cl)cccc4C(F)(F)F)cc3N(S(=O)(=O)c3cccc(OC(F)(F)F)c3)C[C@@H]2C1` [Example 86, (S,E)-2-(8-(2-chloro-6-(trifluoromethyl)styryl)-6-((3-(trifluoromethoxy)phenyl)sulfonyl)-1,2,4,4a,5,6-hexahydro-3H-pyrazino[1,2-a]quinoxalin-3-yl)acetic acid], for which, at RORγt, the EC50 worked out at 2340 nM and the “Cellular Reporter Assay Amax” value is recorded as 12.6. On RORγt-LBD, the EC50 was found to be 78.4 nM and the “TR-FRET Biochemical Amax” value is 0.69.

For the compound `O=S(=O)(c1cc(C(F)(F)F)cnc1OCCO)N1C[C@@H]2CNCCN2c2ccc(-c3cc(F)cc(OC(F)F)c3)cc21` [Example 87, (S)-2-((3-((8-(3-(difluoromethoxy)-5-fluorophenyl)-1,2,3,4,4a,5-hexahydro-6H-pyrazino[1,2-a]quinoxalin-6-yl)sulfonyl)-5-(trifluoromethyl)pyridin-2-yl)oxy) ethan-1-ol], the results for the EC50 on RORγt and on RORγt-LBD were at least 50000 nM and 384 nM, respectively. The “TR-FRET Biochemical Amax” value at RORγt-LBD is given as 0.96.

Turning to `CC1(C)C=C(c2ccc3c(c2)N(S(=O)(=O)c2cc(C(F)(F)F)cnc2OCCO)C[C@@H]2CNCCN32)CC(C)(C)O1` [Example 88, (S)-2-((3-((8-(2,2,6,6-tetramethyl-3,6-dihydro-2H-pyran-4-yl)-1,2,3,4,4a,5-hexa hydro-6H-pyrazino[1,2-a]quinoxalin-6-yl)sulfonyl)-5-(trifluoromethyl)pyridin-2-yl)oxy)ethan-1-ol], the EC50 at RORγt is at least 50000 nM. Further, on RORγt-LBD, the EC50 was found to be 191 nM and the “TR-FRET Biochemical Amax” value came out at 0.72.

For the compound `CS(=O)(=O)N1CCN2c3ccc(-c4cc(F)cc(OC(F)F)c4)cc3N(S(=O)(=O)c3cc(C(F)(F)F)cnc3OCCO)C[C@@H]2C1` [Example 89, (S)-2-((3-((8-(3-(difluoromethoxy)-5-fluorophenyl)-3-(methylsulfonyl)-1,2,3,4,4a,5-hexahydro-6H-pyrazino[1,2-a]quinoxalin-6-yl)sulfonyl)-5-(trifluoromethyl)pyridin-2-yl)oxy)ethan-1-ol], at RORγt, the EC50 turned out to be 1090 nM and the “Cellular Reporter Assay Amax” value stood at 2.7. In addition, at RORγt-LBD, the EC50 came out at 0.53 nM and the “TR-FRET Biochemical Amax” value was 0.40.

`COC(=O)CN1CCN2c3ccc(-c4cc(F)cc(OC(F)F)c4)cc3N(S(=O)(=O)c3cc(C(F)(F)F)cnc3OCCO)C[C@@H]2C1` [Example 90, methyl (S)-2-(8-(3-(difluoromethoxy)-5-fluorophenyl)-6-((2-(2-hydroxyethoxy)-5-(trifluoromethyl)pyridin-3-yl)sulfonyl)-1,2,4,4a,5,6-hexahydro-3H-pyrazino[1,2-a]quinoxalin-3-yl)acetate]: at RORγt, the EC50 is 368 nM and the “Cellular Reporter Assay Amax” value was 1.8. Further, on RORγt-LBD, the EC50 worked out at 20.6 nM and the “TR-FRET Biochemical Amax” value is on record as 0.86.

As for `O=C(O)CN1CCN2c3ccc(-c4cc(F)cc(OC(F)F)c4)cc3N(S(=O)(=O)c3cc(C(F)(F)F)cnc3OCCO)C[C@@H]2C1` [Example 91, (S)-2-(8-(3-(difluoromethoxy)-5-fluorophenyl)-6-((2-(2-hydroxyethoxy)-5-(trifluoromethyl)pyridin-3-yl)sulfonyl)-1,2,4,4a,5,6-hexahydro-3H-pyrazino[1,2-a]quinoxalin-3-yl)acetic acid], at RORγt, the EC50 came to 3760 nM and the “Cellular Reporter Assay Amax” value turned out to be 4.1. Also, on RORγt-LBD, the EC50 is 34.1 nM and the “TR-FRET Biochemical Amax” value is on record as 0.47.

Turning to `O=C(O)CN1CCN2c3ccc(-c4cc(F)cc(OC(F)F)c4)cc3N(S(=O)(=O)C3C=C(C(F)(F)F)C=NC3=O)C[C@@H]2C1` (stereo partly drawn) [Example 92, 2-((4aS)-8-(3-(difluoromethoxy)-5-fluorophenyl)-6-((2-oxo-5-(trifluoromethyl)-2,3-dihydropyridin-3-yl)sulfonyl)-1,2,4,4a,5,6-hexahydro-3H-pyrazino[1,2-a]quinoxalin-3-yl)acetic acid], the figures for the EC50 at RORγt and at RORγt-LBD were at least 50000 nM and 848 nM, respectively.

`COc1ncc(C(F)(F)F)cc1S(=O)(=O)N1C[C@@H]2CN(CC(=O)O)CCN2c2ccc(-c3cc(F)cc(OC(F)F)c3)cc21` [Example 93, (S)-2-(8-(3-(difluoromethoxy)-5-fluorophenyl)-6-((2-methoxy-5-(trifluoromethyl)pyridin-3-yl)sulfonyl)-1,2,4,4a,5,6-hexahydro-3H-pyrazino[1,2-a]quinoxalin-3-yl)acetic acid]: at RORγt, the EC50 stood at 264 nM and the “Cellular Reporter Assay Amax” value turned out to be 2.1. Moreover, on RORγt-LBD, the EC50 is 46.4 nM and the “TR-FRET Biochemical Amax” value came to 0.51.

As to `N#Cc1cccc(-c2ccc3c(c2)N(S(=O)(=O)c2cccc(C(F)(F)F)c2)C[C@@H]2CN(CC(=O)O)CCN32)c1F` [Example 94, (S)-2-(8-(3-cyano-2-fluorophenyl)-6-((3-(trifluoromethyl)phenyl)sulfonyl)-1,2,4,4a,5,6-hexahydro-3H-pyrazino[1,2-a]quinoxalin-3-yl)acetic acid], on RORγt, the EC50 was determined as 3550 nM and the “Cellular Reporter Assay Amax” value is given as 1.8. For the same compound, on RORγt-LBD, the EC50 turned out to be 159 nM and the “TR-FRET Biochemical Amax” value is 0.27.
